Test results reported in publication PMC10269622, “Blapstin, a Diapause-Specific Peptide-Like Peptide from the Chinese Medicinal Beetle Blaps rhynchopetera, Has Antifungal Function” (Microbiology Spectrum, 2023).
In brackets after ≈: the same amount, converted by molar mass.

Key:
Assay in all cases: MIC, broth double dilution
[1] = tested on: Candida albicans ATCC 10231; assay type: cell-based; settings: 96-well plate, 37°C, 16 h, absorbance at 600 nm, mean of three independent experiments
Procedure: (§1) The standard strain of C. albicans (ATCC 10231), three clinically isolated antibiotic-resistant strains (C. albicans 0065, C. albicans 0063, and C. albicans 6), E. coli (ATCC 8739), and S. aureus (ATCC 6538) were obtained from Kunming Medical University. T. rubrum was purchased from BeNa Culture Collection (BNCC, CAS no. 340195). Different strains of C. albicans, E. coli, and S. aureus were cultured with shaking at 37°C in YM medium and Luria-Bertani (LB) medium. T. rubrum was cultured at 28°C in potato dextrose agar (PDA) medium according to the manufacturer’s instructions.
(§2) According to CLSI protocols, the MIC is determined as a point where there is “zero detectable growth,” The MIC of blapstin against different fungal strains was determined by use of the double dilution method, namely, broth dilution determination. In brief, the different strains were grown in their corresponding media at 28°C or 37°C until they reached the exponential growth phase. Colistin E and fluconazole were used as positive controls. Blapstin was diluted to various concentrations in sterile saline: 100 μL of sterile saline was added to the second well of a sterile 96-well plate, and then 100 μL of blapstin was added to the first and second wells. The solution from the second well was double-diluted with sterile saline until the 11th well, from which 100 μL was removed. In the 12th well, no blapstin was added, and sterile saline was used as a negative control. Afterward, 100 μL of the diluted microbial solution was added to each well, followed by incubation at 37°C for 16 h. To assess the antifungal activity of blapstin against the T. rubrum strain, the spore germination rates were first determined microscopically with a hemocytometer. T. rubrum was diluted with normal saline to 1 × 10^5 CFU/mL and then incubated with various concentrations of blapstin at 28°C for 16 h. The absorbance at 600 nm was measured by a microplate reader (Epoch Etock; Biotek, USA) to estimate the inhibition of bacteria and fungi by blapstin.

Trichophyton rubrum = assay type: cell-based; settings: 1 × 10^5 CFU/mL, 28°C, 16 h, absorbance at 600 nm, mean of three independent experiments, ND = no bacteriostatic activity
Procedure: as §1, §2

C. albicans 0063 = assay type: cell-based, Candida albicans; settings: 37°C, 16 h, absorbance at 600 nm, mean of three independent experiments
Procedure: as §1, §2

C. albicans 0065 = assay type: cell-based, Candida albicans; settings: 37°C, 16 h, absorbance at 600 nm, mean of three independent experiments
Procedure: as §1, §2

C. albicans 6 = assay type: cell-based, Candida albicans; settings: 37°C, 16 h, absorbance at 600 nm, mean of three independent experiments
Procedure: as §1, §2

[2] = tested on: Escherichia coli ATCC 8739; assay type: cell-based; settings: 96-well plate, 37°C, 16 h, absorbance at 600 nm, mean of three independent experiments, ND = no bacteriostatic activity
Procedure: as §1, §2

[3] = tested on: Staphylococcus aureus ATCC 6538; assay type: cell-based; settings: 96-well plate, 37°C, 16 h, absorbance at 600 nm, mean of three independent experiments, ND = no bacteriostatic activity
Procedure: as §1, §2

[4] = clinically isolated antibiotic-resistant strain

`OC(Cn1cncn1)(Cn1cncn1)c1ccc(F)cc1F` [Fluconazole] showed an MIC ([1]; Candida albicans, ATCC10231, standard strain) of 15 µM (≈ 4.59 µg/mL), an MIC (Trichophyton rubrum) of 12.2 µM (≈ 3.74 µg/mL) and an MIC (C. albicans 0063; Candida albicans, 0063, clinically isolated antibiotic-resistant strain) of 61 µM (≈ 18.7 µg/mL). For the same compound, the MIC (C. albicans 0065; Candida albicans, 0065, clinically isolated antibiotic-resistant strain) was 70 µM (≈ 21.4 µg/mL) and the MIC (C. albicans 6; Candida albicans, 6, clinically isolated antibiotic-resistant strain) was 61 µM (≈ 18.7 µg/mL).

For Colistin E, the MIC ([1]; standard strain) was 22 µM, the MIC [2] was 3 µM and the MIC [3] was 81.1 µM. The MIC (C. albicans 0063; [4]) was 5.4 µM, the MIC (C. albicans 0065; [4]) was 5.4 µM and the MIC (C. albicans 6; [4]) was 1.1 µM.
